The values that follow come from US9340590B2 (priority 2011, dated 2016).

Structures are written as SMILES. pIC50: −log10 of the molar value. Where two headings read alike, the source gives them in different places. Positions of bridges follow the written chain, without caps; N, C: chain ends. Non-standard residues stand in square brackets, D forms with d. Residues, ends and D or L forms follow the SMILES beside them. Abu = CC[C@H](N)C(=O)O

Holding throughout (assay): cell-based
In one assay the target is hNav1.7 (Homo sapiens, UniProt Q15858). The assay is classed as cell-based. As to conditions: for pIC50: IonWorks Quattro, read-out: IWQ Use Nav1.7.
Another assay addresses hNav1.5 (Homo sapiens, UniProt Q14524). The following applies: IonWorks Quattro, read-out: IWQ Use Nav1.5. In general terms: The patch-clamp technique gives a direct electrical read-out from membranes.
A further assay concerns the target hNav1.4 (Homo sapiens, UniProt P35499). The following applies: IonWorks Quattro, read-out: IWQ Use Nav1.4.
The target in a further assay is hNav1.3 (Homo sapiens, UniProt Q9NY46). The following applies: IonWorks Quattro, read-out: IWQ Use Nav1.3.
Sequence of hNav1.3 (Q9NY46 whole entry, looked up): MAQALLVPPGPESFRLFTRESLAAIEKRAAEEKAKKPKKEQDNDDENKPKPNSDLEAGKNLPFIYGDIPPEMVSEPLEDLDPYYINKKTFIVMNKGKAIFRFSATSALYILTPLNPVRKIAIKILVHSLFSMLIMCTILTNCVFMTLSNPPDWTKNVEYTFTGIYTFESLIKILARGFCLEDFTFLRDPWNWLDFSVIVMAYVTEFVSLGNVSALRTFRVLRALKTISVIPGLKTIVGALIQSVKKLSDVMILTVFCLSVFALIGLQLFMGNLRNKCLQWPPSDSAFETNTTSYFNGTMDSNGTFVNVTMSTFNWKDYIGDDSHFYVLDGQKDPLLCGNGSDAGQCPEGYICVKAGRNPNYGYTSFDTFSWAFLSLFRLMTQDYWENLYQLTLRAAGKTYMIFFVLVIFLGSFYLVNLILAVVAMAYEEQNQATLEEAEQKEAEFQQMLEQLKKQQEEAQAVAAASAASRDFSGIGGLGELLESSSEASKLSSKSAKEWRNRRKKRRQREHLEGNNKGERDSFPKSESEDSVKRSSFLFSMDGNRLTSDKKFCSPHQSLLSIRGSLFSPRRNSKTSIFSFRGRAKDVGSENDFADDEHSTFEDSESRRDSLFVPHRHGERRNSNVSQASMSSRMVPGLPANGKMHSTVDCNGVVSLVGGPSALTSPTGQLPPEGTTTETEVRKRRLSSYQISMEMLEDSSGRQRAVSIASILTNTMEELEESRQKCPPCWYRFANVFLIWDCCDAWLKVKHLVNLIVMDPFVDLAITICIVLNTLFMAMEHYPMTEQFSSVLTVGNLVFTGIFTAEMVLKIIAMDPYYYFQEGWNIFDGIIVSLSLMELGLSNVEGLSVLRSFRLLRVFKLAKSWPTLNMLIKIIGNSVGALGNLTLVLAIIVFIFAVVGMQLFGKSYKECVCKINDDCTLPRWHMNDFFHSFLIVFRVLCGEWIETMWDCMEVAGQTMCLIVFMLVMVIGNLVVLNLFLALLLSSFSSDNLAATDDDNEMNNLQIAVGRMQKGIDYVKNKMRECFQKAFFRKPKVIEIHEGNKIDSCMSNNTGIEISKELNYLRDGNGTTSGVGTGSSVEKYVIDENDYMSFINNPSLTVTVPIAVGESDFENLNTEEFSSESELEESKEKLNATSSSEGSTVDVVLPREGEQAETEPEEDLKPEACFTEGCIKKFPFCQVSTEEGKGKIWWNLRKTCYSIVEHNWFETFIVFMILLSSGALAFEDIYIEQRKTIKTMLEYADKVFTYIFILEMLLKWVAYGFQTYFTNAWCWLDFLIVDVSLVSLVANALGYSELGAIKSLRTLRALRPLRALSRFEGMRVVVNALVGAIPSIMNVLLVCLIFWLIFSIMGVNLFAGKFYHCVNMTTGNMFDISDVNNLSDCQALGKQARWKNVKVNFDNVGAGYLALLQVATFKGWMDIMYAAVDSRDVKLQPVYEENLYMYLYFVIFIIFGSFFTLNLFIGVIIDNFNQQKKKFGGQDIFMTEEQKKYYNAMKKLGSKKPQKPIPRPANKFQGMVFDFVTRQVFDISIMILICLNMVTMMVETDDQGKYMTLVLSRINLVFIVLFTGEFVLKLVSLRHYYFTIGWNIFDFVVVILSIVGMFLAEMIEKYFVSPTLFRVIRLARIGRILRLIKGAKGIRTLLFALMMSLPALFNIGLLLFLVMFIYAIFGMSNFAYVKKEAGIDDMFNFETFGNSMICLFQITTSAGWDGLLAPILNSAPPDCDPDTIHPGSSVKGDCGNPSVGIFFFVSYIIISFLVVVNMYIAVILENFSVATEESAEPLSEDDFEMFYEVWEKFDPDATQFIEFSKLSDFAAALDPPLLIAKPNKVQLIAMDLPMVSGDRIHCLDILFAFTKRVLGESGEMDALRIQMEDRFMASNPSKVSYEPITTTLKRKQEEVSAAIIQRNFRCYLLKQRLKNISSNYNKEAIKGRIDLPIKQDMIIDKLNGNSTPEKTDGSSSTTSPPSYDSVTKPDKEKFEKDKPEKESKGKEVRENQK
[1] abbreviates: clamped to −110 mV, depolarized to −10 mV, 5 min after compound, n=2.

Sequence of hNav1.5 (Q14524 whole entry, looked up): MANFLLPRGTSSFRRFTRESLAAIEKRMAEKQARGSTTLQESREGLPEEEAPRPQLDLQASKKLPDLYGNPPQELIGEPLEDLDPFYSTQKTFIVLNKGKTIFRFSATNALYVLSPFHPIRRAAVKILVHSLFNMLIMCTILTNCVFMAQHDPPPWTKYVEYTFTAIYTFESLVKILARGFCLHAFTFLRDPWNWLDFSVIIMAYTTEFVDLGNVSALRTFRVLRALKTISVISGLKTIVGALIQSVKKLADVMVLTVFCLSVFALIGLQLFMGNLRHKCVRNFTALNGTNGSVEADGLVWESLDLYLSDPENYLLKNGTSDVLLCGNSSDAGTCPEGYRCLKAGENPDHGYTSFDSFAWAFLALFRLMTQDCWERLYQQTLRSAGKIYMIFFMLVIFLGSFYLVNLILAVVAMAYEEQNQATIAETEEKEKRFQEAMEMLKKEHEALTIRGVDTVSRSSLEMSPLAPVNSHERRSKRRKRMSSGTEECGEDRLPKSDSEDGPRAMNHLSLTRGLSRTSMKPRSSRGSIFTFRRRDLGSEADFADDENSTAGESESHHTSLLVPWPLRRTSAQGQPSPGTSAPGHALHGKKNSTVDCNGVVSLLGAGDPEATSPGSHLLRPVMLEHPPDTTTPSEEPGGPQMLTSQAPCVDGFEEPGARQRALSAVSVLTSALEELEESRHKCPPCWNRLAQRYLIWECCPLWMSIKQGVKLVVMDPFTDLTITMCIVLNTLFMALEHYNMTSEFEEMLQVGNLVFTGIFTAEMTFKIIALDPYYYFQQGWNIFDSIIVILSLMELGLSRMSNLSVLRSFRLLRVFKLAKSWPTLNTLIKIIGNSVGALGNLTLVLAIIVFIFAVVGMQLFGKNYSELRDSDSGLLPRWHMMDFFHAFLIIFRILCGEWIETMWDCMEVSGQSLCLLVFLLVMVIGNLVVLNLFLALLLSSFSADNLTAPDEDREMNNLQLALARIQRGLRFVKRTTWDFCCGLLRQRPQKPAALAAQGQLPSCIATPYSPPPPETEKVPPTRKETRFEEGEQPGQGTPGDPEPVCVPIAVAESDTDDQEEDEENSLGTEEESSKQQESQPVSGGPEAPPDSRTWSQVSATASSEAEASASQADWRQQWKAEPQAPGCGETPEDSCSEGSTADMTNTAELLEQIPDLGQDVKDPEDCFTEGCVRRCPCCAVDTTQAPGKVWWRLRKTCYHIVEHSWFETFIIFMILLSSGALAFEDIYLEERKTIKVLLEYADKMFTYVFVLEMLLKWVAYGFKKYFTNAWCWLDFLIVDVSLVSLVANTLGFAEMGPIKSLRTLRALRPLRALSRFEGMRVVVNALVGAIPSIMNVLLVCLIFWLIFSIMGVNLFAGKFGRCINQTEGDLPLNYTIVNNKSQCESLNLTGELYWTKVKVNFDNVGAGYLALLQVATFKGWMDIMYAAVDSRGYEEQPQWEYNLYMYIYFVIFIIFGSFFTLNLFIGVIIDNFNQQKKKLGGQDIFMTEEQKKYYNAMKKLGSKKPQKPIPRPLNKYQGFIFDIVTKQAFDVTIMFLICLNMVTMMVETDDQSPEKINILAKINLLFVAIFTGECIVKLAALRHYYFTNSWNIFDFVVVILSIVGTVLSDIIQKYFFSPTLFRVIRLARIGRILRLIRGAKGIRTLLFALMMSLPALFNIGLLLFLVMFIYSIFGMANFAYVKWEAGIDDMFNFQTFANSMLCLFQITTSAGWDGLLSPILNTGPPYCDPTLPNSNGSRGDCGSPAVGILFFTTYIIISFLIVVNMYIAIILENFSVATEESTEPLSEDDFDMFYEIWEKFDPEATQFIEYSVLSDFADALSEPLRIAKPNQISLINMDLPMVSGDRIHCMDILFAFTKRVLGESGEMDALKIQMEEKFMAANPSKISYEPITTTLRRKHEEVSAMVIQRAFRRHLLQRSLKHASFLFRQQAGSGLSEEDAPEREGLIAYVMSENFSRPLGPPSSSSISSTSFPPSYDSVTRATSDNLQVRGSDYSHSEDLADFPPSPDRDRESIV

`CC(C)C[C@@H]1NC(=O)[C@@H](NC(=O)[C@@H](N)CC(=O)O)CSSC[C@@H]2NC(=O)[C@@H]3CSSC[C@@H](C(=O)N[C@@H](CCCCN)C(=O)N[C@@H](Cc4ccc(O)cc4)C(=O)N[C@@H](CCCCN)C(=O)N[C@@H](CC(C)C)C(=O)N[C@@H](Cc4c[nH]c5ccccc45)C(=O)N[C@@H](CCCCN)C(=O)O)NC(=O)[C@H](Cc4c[nH]c5ccccc45)NC(=O)[C@H](CCCCN)NC(=O)[C@H](CC(=O)O)NC(=O)[C@H](CCCNC(=N)N)NC(=O)[C@H](CCCNC(=N)N)NC(=O)[C@H](CC(N)=O)NC(=O)[C@H](CSSC[C@H](NC(=O)CNC(=O)[C@H](CCCCN)NC(=O)[C@H](Cc4ccccc4)NC(=O)[C@H](Cc4c[nH]c5ccccc45)NC(=O)CNC1=O)C(=O)N[C@@H](CC(=O)O)C(=O)N1CCC[C@H]1C(=O)N[C@@H](CC(=O)O)C(=O)N[C@@H](CC(N)=O)C(=O)N[C@@H](CC(=O)O)C(=O)N[C@@H](CCCCN)C(=O)N3)NC(=O)[C@H](CCCCN)NC(=O)[C@H](Cc1ccc(O)cc1)NC(=O)[C@H](CC(N)=O)NC(=O)[C@H](CCC(=O)O)NC2=O` [SEQ ID NO: 473] (H-DCLGWFKGCDPDNDKCCENYKCNRRDKWCKYKLWK-OH; disulfide 2-17, 9-22, 16-29): the pIC50 on hNav1.7 (setting [1]) is 4.98; on hNav1.5 (setting [1]) it was 5.12; at hNav1.4 (setting [1]), 5.00; at hNav1.3 (setting [1]) it was 5.46.
Take `CC[C@H](C)[C@@H]1NC(=O)[C@@H]2CSSC[C@@H]3NC(=O)[C@H](C(C)C)NC(=O)[C@H](CC(C)C)NC(=O)[C@H](CC(N)=O)NC(=O)[C@@H]4CCCN4C(=O)[C@H](CCCNC(=N)N)NC(=O)[C@H](CSSC[C@H](NC(=O)[C@H](CC(=O)O)NC(=O)[C@H](CO)NC(=O)CN)C(=O)N[C@@H](CC(C)C)C(=O)NCC(=O)N[C@@H](C)C(=O)N[C@@H](CC(C)C)C(=O)N[C@@H](CCCNC(=N)N)C(=O)N[C@@H](CCCCN)C(=O)N2)NC(=O)[C@H](CSSC[C@@H](C(=O)N[C@@H](CCCCN)C(=O)N[C@@H](Cc2ccc(O)cc2)C(=O)N[C@H](C(=O)N[C@@H](Cc2ccccc2)C(=O)N[C@@H](Cc2ccccc2)C(=O)O)C(C)C)NC(=O)[C@H](Cc2c[nH]c4ccccc24)NC(=O)[C@H](CCCNC(=N)N)NC(=O)[C@H](Cc2c[nH]cn2)NC(=O)[C@H]([C@@H](C)O)NC(=O)[C@H](CCCNC(=N)N)NC(=O)[C@H](CO)NC3=O)NC(=O)[C@H](CCCCN)NC(=O)[C@H](CC(=O)O)NC(=O)[C@H](CC(N)=O)NC(=O)[C@H](CC(=O)O)NC(=O)[C@@H]2CCCN2C1=O` [compound 820] (H-GSDCLGALRKCIPDNDKCCRPNLVCSRTHRWCKYVFF-OH; disulfide 4-19, 11-25, 18-32): the pIC50 on hNav1.7 (use-dependent block, hNav1.7) is 6.30; on hNav1.5 (use-dependent block, hNav1.5), under 5.30; on hNav1.4 (use-dependent block, hNav1.4) it was under 5.30; on hNav1.3 (use-dependent block, hNav1.3) it was 6.30. The Nav1.7/Nav1.3 on hNav1.7 (ratio of IWQ Use values, Nav1.7 over Nav1.3) came to 1.0.
As for `CC[C@@H]1NC(=O)[C@@H]2CSSC[C@@H](C(=O)N[C@@H](CCCCN)C(=O)N[C@@H](Cc3ccc(O)cc3)C(=O)N[C@H](C(=O)N[C@@H](Cc3ccccc3)C(N)=O)C(C)C)NC(=O)[C@H](Cc3c[nH]c4ccccc34)NC(=O)[C@H](CCCCN)NC(=O)[C@H](Cc3c[nH]cn3)NC(=O)[C@H]([C@@H](C)O)NC(=O)[C@H](CCCNC(=N)N)NC(=O)[C@H](CO)NC(=O)[C@H](CSSC[C@H](NC(=O)[C@H](CCCCN)NC(=O)[C@H](CCCNC(=N)N)NC(=O)[C@H](CCSC)NC(=O)[C@H](C)NC(=O)CNC(=O)[C@H](CC(C)C)NC(=O)[C@H](CC)NC(=O)[C@@H](N)CC(=O)O)C(=O)N[C@@H](CC(=O)O)C(=O)N3CCC[C@H]3C(=O)N[C@@H](CC(=O)O)C(=O)N[C@@H](CC(N)=O)C(=O)N[C@@H](CC(=O)O)C(=O)N[C@@H](CCCCN)C(=O)N2)NC(=O)[C@H](C(C)C)NC(=O)[C@H](CC(C)C)NC(=O)[C@H](CC(N)=O)NC(=O)[C@@H]2CCCN2C(=O)[C@H](CCCNC(=N)N)NC1=O` [compound 716] (H-D[Abu]LGAMRKCDPDNDKC[Abu]RPNLVCSRTHKWCKYVF-NH2; disulfide 9-23, 16-30), the pIC50 is 5.43 on hNav1.7 (use-dependent block, hNav1.7); 4.31 at hNav1.5 (use-dependent block, hNav1.5); under 4.30 at hNav1.4 (use-dependent block, hNav1.4); under 5.30 at hNav1.3 (use-dependent block, hNav1.3).
Taken in the same sequence, the figures for `CC[C@H](NC(=O)CNC(=O)[C@H](CC(C)C)NC(=O)[C@H](CC)NC(=O)[C@@H](N)CC(=O)O)C(=O)N[C@@H](CC(C)C)C(=O)N[C@@H](CCCNC(=N)N)C(=O)N[C@@H](CCCCN)C(=O)N[C@H]1CSSC[C@@H]2NC(=O)[C@H](C(C)C)NC(=O)[C@H](CC(C)C)NC(=O)[C@H](CC(N)=O)NC(=O)[C@@H]3CCCN3C(=O)[C@H](CCCNC(=N)N)NC(=O)[C@H](CC)NC(=O)[C@H](CSSC[C@@H](C(=O)N[C@@H](CCCCN)C(=O)N[C@@H](Cc3ccc(O)cc3)C(=O)N[C@H](C(=O)N[C@@H](Cc3ccccc3)C(N)=O)C(C)C)NC(=O)[C@H](Cc3c[nH]c4ccccc34)NC(=O)[C@H](CCC(=O)O)NC(=O)[C@H](Cc3c[nH]cn3)NC(=O)[C@H]([C@@H](C)O)NC(=O)[C@H](CCCNC(=N)N)NC(=O)[C@H](CO)NC2=O)NC(=O)[C@H](CCCCN)NC(=O)[C@H](CC(=O)O)NC(=O)[C@H](CC(N)=O)NC(=O)[C@H](CC(=O)O)NC(=O)[C@@H]2CCCN2C(=O)[C@H]([C@@H](C)CC)NC1=O` [compound 718] (H-D[Abu]LG[Abu]LRKCIPDNDKC[Abu]RPNLVCSRTHEWCKYVF-NH2; disulfide 9-23, 16-30) were 5.37, under 4.30, under 4.30 and under 5.30.
On the same counts, the results for `CC[C@@H]1NC(=O)[C@@H]2CSSC[C@@H](C(=O)N[C@@H](CCCCN)C(=O)N[C@@H](Cc3ccc(O)cc3)C(=O)N[C@H](C(=O)N[C@@H](Cc3ccccc3)C(N)=O)C(C)C)NC(=O)[C@H](Cc3c[nH]c4ccccc34)NC(=O)[C@H](CCC(=O)O)NC(=O)[C@H](Cc3c[nH]cn3)NC(=O)[C@H]([C@@H](C)O)NC(=O)[C@H](CCCNC(=N)N)NC(=O)[C@H](CO)NC(=O)[C@H](CSSC[C@H](NC(=O)[C@H](CCCCN)NC(=O)[C@H](CCCNC(=N)N)NC(=O)[C@H](CC(C)C)NC(=O)[C@@H](NC(=O)CNC(=O)[C@H](CC(C)C)NC(=O)[C@H](CC)NC(=O)[C@@H](N)CC(=O)O)C(C)C)C(=O)N[C@@H]([C@@H](C)CC)C(=O)N3CCC[C@H]3C(=O)N[C@@H](CC(=O)O)C(=O)N[C@@H](CC(N)=O)C(=O)N[C@@H](CC(=O)O)C(=O)N[C@@H](CCCCN)C(=O)N2)NC(=O)[C@H](C(C)C)NC(=O)[C@H](CC(C)C)NC(=O)[C@H](CC(N)=O)NC(=O)[C@@H]2CCCN2C(=O)[C@H](CCCNC(=N)N)NC1=O` [compound 720] (H-D[Abu]LGVLRKCIPDNDKC[Abu]RPNLVCSRTHEWCKYVF-NH2; disulfide 9-23, 16-30) are under 5.30, 4.48, under 4.30 and under 5.30.
Turning to `CC(C)C[C@H](NC(=O)[C@H](CCCCN)NC(=O)[C@H](Cc1ccc(O)cc1)NC(=O)[C@H](CCCCN)NC(=O)[C@@H]1CSSC[C@@H]2NC(=O)[C@H](CCCCN)NC(=O)[C@H](CC(=O)O)NC(=O)[C@H](CC(N)=O)NC(=O)[C@H](CC(=O)O)NC(=O)[C@@H]3CCCN3C(=O)[C@H](CC(=O)O)NC(=O)[C@@H]3CSSC[C@H](NC(=O)[C@H](CCCCN)NC(=O)[C@H](Cc4ccc(O)cc4)NC(=O)CNC(=O)[C@H](CCC(=O)O)NC(=O)[C@H](CSSC[C@H](NC(=O)[C@@H](N)CC(=O)O)C(=O)N[C@@H](CC(C)C)C(=O)NCC(=O)N[C@@H](Cc4c[nH]c5ccccc45)C(=O)N[C@@H](Cc4ccccc4)C(=O)N[C@@H](CCCCN)C(=O)NCC(=O)N3)NC2=O)C(=O)N[C@@H](CC(N)=O)C(=O)N[C@@H](CCCNC(=N)N)C(=O)N[C@@H](CCCNC(=N)N)C(=O)N[C@@H](CC(=O)O)C(=O)N[C@@H](CCCCN)C(=O)N[C@@H](Cc2c[nH]c3ccccc23)C(=O)N1)C(N)=O` [SEQ ID NO: 468] (H-DCLGWFKGCDPDNDKCCEGYKCNRRDKWCKYKL-NH2; disulfide 2-17, 9-22, 16-29), the pIC50 at hNav1.7 (setting [1]) was 5.05; on hNav1.5 (setting [1]), 5.11; on hNav1.4 (setting [1]), 4.70; on hNav1.3 (setting [1]) it was 5.03.
In the case of `CC(C)C[C@H](NC(=O)[C@H](CCCCN)NC(=O)[C@H](Cc1ccc(O)cc1)NC(=O)[C@H](CCCCN)NC(=O)[C@@H]1CSSC[C@@H]2NC(=O)[C@H](CCCCN)NC(=O)[C@H](CC(=O)O)NC(=O)[C@H](CC(N)=O)NC(=O)[C@H](CC(=O)O)NC(=O)[C@@H]3CCCN3C(=O)[C@H](CC(=O)O)NC(=O)[C@@H]3CSSC[C@H](NC(=O)[C@H](CCCCN)NC(=O)[C@H](Cc4ccc(O)cc4)NC(=O)[C@H](CC(N)=O)NC(=O)[C@H](CCC(=O)O)NC(=O)[C@H](CSSC[C@H](NC(=O)[C@@H](N)CC(=O)O)C(=O)N[C@@H](CC(C)C)C(=O)NCC(=O)N[C@@H](Cc4c[nH]c5ccccc45)C(=O)N[C@@H](Cc4ccccc4)C(=O)N[C@@H](CCCCN)C(=O)NCC(=O)N3)NC2=O)C(=O)N[C@@H](CC(N)=O)C(=O)N[C@@H](CCCNC(=N)N)C(=O)N[C@@H](CCCNC(=N)N)C(=O)N[C@@H](CCC(=O)O)C(=O)N[C@@H](CCC(N)=O)C(=O)N[C@@H](Cc2c[nH]c3ccccc23)C(=O)N1)C(N)=O` [SEQ ID NO: 469] (H-DCLGWFKGCDPDNDKCCENYKCNRREQWCKYKL-NH2; disulfide 2-17, 9-22, 16-29), the pIC50 at hNav1.7 (setting [1]) is 5.03; at hNav1.5 (setting [1]), 4.98; at hNav1.4 (setting [1]) it was 4.96; at hNav1.3 (setting [1]) it was 5.31.
